Where two headings read alike, the source gives them in different places.
How the values were obtained:
[1] = tested on: Pyricularia oryzae; assay type: cell-based; details: MTP, 7 days after inoculation
[2] = tested on: Microdochium nivale; experiment: B.2.3 microtest, activity against Microdochium nivale; assay type: cell-based; details: MTP, 7 days after inoculation
[3] = tested on: Rhizoctonia solani; experiment: B.2.4 microtest, activity against Rhizoctonia solani; assay type: cell-based; details: MTP, 7 days after inoculation
[4] = tested on: wireworm (Melanotus communis); experiment: Test B.1.1 control of wireworm, direct contact (dip) method; assay type: in vivo; details: mortality 3 DAT
Protocol: For evaluating control of wireworm (Melanotus communis) through direct contact method, the individual insects were dipped directly into compound solution.
The compounds or mixtures were dissolved in acetone at different concentrations. The compounds or mixtures were formulated using a solution containing 50% (v/v) acetone in water with 0.02 wt % Kinetic®.
For the experimental mixtures, identical volumes of both mixing partners were mixed together to achieve the desired respective concentrations. Wireworms were dipped directly into solution for three seconds and then allowed to air dry on filter paper.
About 11 cm^3 of water-moistened loamy sand was dispensed into each 16-cm^2 cell of a 32-cell rearing tray. One treated wireworm larva was infested into each cell along with two germinating wheat seeds. Cells were then covered with adhesive bio-assay tray lids. Each cell was a replicate and replication was 10×. After infestation, the test was maintained in an incubator at 26±1° C. in the dark. Mortality (dead+moribund insects) was evaluated 3 days after treatment (DAT) and mean percent mortality was calculated relative to the untreated control.

[5] = tested on: western corn rootworm (Diabrotica virgifera virgifera); experiment: Test B.1.2 control of western corn rootworm, maximum exposure to treated soil; assay type: in vivo; details: mortality 3 DAI
Excerpt: For evaluating control of western corn rootworm (Diabrotica virgifera virgifera) through maximum exposure method, the insects were exposed to treated soil.
The compounds or mixtures were first dissolved in acetone, and then mixed with soil to obtain the desired different ppm concentrations (w/w) of compound/soil or mixture/soil. For experimental mixtures, identical volumes of both mixing partners were mixed together to achieve the desired respective concentrations. Treatments were applied in solution to sifted (#10 sieve) loamy sand in a plastic bag. Treatments were thoroughly incorporated by sealing and shaking each bag by hand and allowing the solution to soak through the soil mass for at least 10 minutes. Bags were then unsealed and kept open in a fume hood overnight to evaporate the solvent from the soil.
One day after treatment (DAT) water for moisture and water-soaked millet seed as a food source were added to each bag and incorporated thoroughly. About 11 cm^3 of the millet and soil mixture was dispensed into a 1-oz. plastic cup. Each cup was infested with 10 western corn rootworm second-instar larvae and covered. Each cup was a replicate and replication was 3×. The test was maintained in an incubator at 26±1° C. in the dark. Mortality (dead+moribund insects) was evaluated 3 days after infestation (DAI) and mean percent mortality was calculated relative to the untreated control.

[6] = tested on: black cutworm (Agrotis ipsilon); experiment: Test B.1.3 control of black cutworm, direct contact (dip) method; assay type: in vivo; details: for Average Control % 1 DAT: mortality 1 DAT; for Average Control % 5 DAT: mortality 5 DAT
Protocol: For evaluating control of black cutworm (Agrotis ipsilon) through direct contact method, the individual insects were dipped directly into compound solution.
The compounds or mixtures were dissolved in acetone at different concentrations. The compounds or mixtures were formulated using a solution containing 50% (v/v) acetone in water with 0.02 wt % Kinetic®. For experimental mixtures, identical volumes of both mixing partners were mixed together to achieve the desired respective concentrations. Second-instar black cutworms were dipped directly into solution for three seconds and then allowed to air dry on filter paper. One treated black cutworm larva was infested into each 16-cm^2 cell of a 32-cell rearing tray along with the excised shoot of a corn plant and a moistened cotton wick. Cells were then covered with adhesive bio-assay tray lids. Each cell was a replicate and replication was 16×. After infestation, the test was maintained in an incubator at 25.5±1° C. and a 14L:10D light cycle. Mortality (dead+moribund insects) was evaluated 1 and 5 days after treatment (DAT) and mean percent mortality was calculated relative to the untreated control.

[7] = tested on: seedcorn maggot (Della platura); experiment: Test B.1.4 control of seedcorn maggot, maximum exposure to treated soil; assay type: in vivo; details: mortality 2 DAT
Excerpt: For evaluating control of seedcorn maggot (Della platura) through maximum exposure, the insects were exposed to treated soil.
The compounds or mixtures were first dissolved in acetone, and then mixed with soil to obtain the desired different ppm concentrations (w/w) of compound/soil or mixture/soil. For experimental mixtures, identical volumes of both mixing partners were mixed together to achieve the desired respective concentrations. Treatments were applied in solution to dry, sifted (#10 sieve) play sand in a glass jar. Treatments were thoroughly incorporated by capping and shaking each jar by hand and allowing the solution to soak through the sand mass for at least 10 minutes. The jars were then uncapped and the sand was kept in a fume hood for 4 hours to evaporate the solvent.
After the sand was dry, 10 cm^3 of the treated sand was dispensed into a 1-oz. plastic cup with bone meal in the bottom as a food source. Each cup was moistened with 4 ml water, infested with five seedcorn maggot second-instar larvae, and covered. Each cup was a replicate and replication was 5×. The test was maintained in an incubator at 22±1° C. in the dark. Mortality (dead+moribund insects) was evaluated 2 days after treatment (DAT) and mean percent mortality was calculated relative to the untreated control.

[8] = tested on: root-knot nematodes (Meloidogyne spp.); experiment: Test B.1.5 control of root-knot nematodes, drench application on cucumber plants; assay type: in vivo; details: four weeks after infestation
Protocol: For evaluating control of root-knot nematodes (Meloidogyne spp.) through exposure via drench application, the nematodes were introduced to treated cucumber plants.
The compounds or mixtures were dissolved in acetone at different concentrations. The compounds or mixtures were formulated using a solution containing 50% (v/v) acetone in water with 0.02 wt % Kinetic®. For experimental mixtures, identical volumes of both mixing partners were mixed together to achieve the desired respective concentrations.
Germinated cucumber seeds were planted in 1-oz black plastic cups (one seed per cup) with dry, sifted (#10 sieve) play sand. Treatments were applied as a drench in 7 ml solution to each cup which were held in a fume hood for 1 hour to allow acetone to evaporate. The cups were moved to an environmental chamber (25±2° C., 24 L) and watered daily for the duration of the test. Each cup was a replicate and replication was 5×. At the cucumber's cotyledon stage, each cup was infested with 500 root-knot nematode juveniles (J2s) in 1 ml distilled water.
Four weeks after infestation, cucumber roots were washed off and galls and egg masses were counted. Control was calculated as the reduction in galls or egg masses relative to the untreated control. Mean percent control was calculated for each treatment.

[9] = tested on: Alternaria solani; experiment: B.2.2 microtest, activity against early blight; assay type: cell-based; details: MTP, 7 days after inoculation

## Fc1ccc([C@]2(Cn3cncn3)O[C@H]2c2ccccc2Cl)cc1 (racemic) [Epoxiconazol, Epoxiconazole]
[1]; 0.063 ppm
  Observed efficacy: 1
[1]; 0.25 ppm
  Observed efficacy: 28
[2]; 0.004 ppm
  Observed efficacy: 8
[2]; 0.016 ppm
  Observed efficacy: 29
[3]; 0.001 ppm
  Observed efficacy: 0
[3]; 0.004 ppm
  Observed efficacy: 0
[3]; 0.016 ppm
  Observed efficacy: 24

## CN(C(=O)c1ccccc1)c1cccc(C(=O)Nc2c(Br)cc(C(F)(C(F)(F)F)C(F)(F)F)cc2C(F)(F)F)c1F [Carboxamide compound of formula I]
[4]; 3 ppm
  Average Control %: 33%
[5]; 0.01 ppm compound/soil
  Average Control %: 30%
[6]; 3 ppm
  Average Control % 1 DAT: 38%
  Average Control % 5 DAT: 44%
[7]; 0.06 ppm compound/soil
  Average Control %: 21%
[8]; 0.3 mg compound/plant
  Average Egg Mass Control %: −21%
  Average Gall Control %: 35%
[1]; 0.063 ppm
  Observed efficacy: 2
[1]; 1 ppm
  Observed efficacy: 12
[1]; 4 ppm
  Observed efficacy: 15
[1]; 16 ppm
  Observed efficacy: 4
[9]; 1 ppm
  Observed efficacy: 0
[9]; 4 ppm
  Observed efficacy: 0
[9]; 16 ppm
  Observed efficacy: 0
[9]; 63 ppm
  Observed efficacy: 0
[2]; 4 ppm
  Observed efficacy: 13
[2]; 16 ppm
  Observed efficacy: 15
[2]; 63 ppm
  Observed efficacy: 4
[3]; 1 ppm
  Observed efficacy: 0
[3]; 4 ppm
  Observed efficacy: 0
[3]; 16 ppm
  Observed efficacy: 0

## CN/C(=N\[N+](=O)[O-])NCc1cnc(Cl)s1 [Clothianidin]
[5]; 0.1 ppm compound/soil
  Average Control %: 33%

## CNC(=O)c1cc(C#N)cc(C)c1NC(=O)c1cc(Br)nn1-c1ncccc1Cl [Cyantraniliprole, cyantraniliprole]
[4]; 225 ppm
  Average Control %: 22%
[5]; 3.1 ppm compound/soil
  Average Control %: 23%
[7]; 10 ppm compound/soil
  Average Control %: 64%

## N#Cc1nn(-c2c(Cl)cc(C(F)(F)F)cc2Cl)c(N)c1[S+]([O-])C(F)(F)F (centres unmarked) [Fipronil]
[4]; 30 ppm
  Average Control %: 22%
[5]; 0.03 ppm compound/soil
  Average Control %: 27%
[6]; 300 ppm
  Average Control % 1 DAT: 13%
  Average Control % 5 DAT: 31%

## Cn1cc(C(=O)Nc2ccccc2-c2cc(F)c(F)c(F)c2)c(C(F)F)n1 [Fluxapyroxad]
[2]; 0.004 ppm
  Observed efficacy: 0
[2]; 0.063 ppm
  Observed efficacy: 0

## O=[N+]([O-])NC1=NCCN1Cc1ccc(Cl)nc1 [Imidacloprid]
[5]; 0.13 ppm compound/soil
  Average Control %: 17%
[7]; 3 ppm compound/soil
  Average Control %: 18%

## COC(=O)N(OC)c1ccccc1COc1ccn(-c2ccc(Cl)cc2)n1 [Pyraclostrobin]
[9]; 0.016 ppm
  Observed efficacy: 0
[9]; 0.063 ppm
  Observed efficacy: 12
[2]; 0.016 ppm
  Observed efficacy: 46

## N#C/N=C1\SCCN1Cc1ccc(Cl)nc1 [Thiacloprid]
[5]; 0.2 ppm compound/soil
  Average Control %: 37%

## CN1COCN(Cc2cnc(Cl)s2)/C1=N\[N+](=O)[O-] [Thiamethoxam]
[4]; 25 ppm
  Average Control %: 11%

## CC1(C)CCC(=Cc2ccc(Cl)cc2)C1(O)Cn1cncn1 (centres unmarked) [Triticonazol, Triticonazole]
[9]; 0.25 ppm
  Observed efficacy: 0
[9]; 1 ppm
  Observed efficacy: 23
[3]; 0.25 ppm
  Observed efficacy: 41

## Abamectin
[8]; 0.008 mg compound/plant
  Average Egg Mass Control %: 17%
  Average Gall Control %: 24%
[8]; 0.017 mg compound/plant
  Average Egg Mass Control %: 39%
  Average Gall Control %: 40%

## emamectin
[4]; 800 ppm
  Average Control %: 11%

From patent US10201157B2 (priority 2013, dated 2019)
